Data from patent EP0668872B1 (priority 1992, dated 1994).

Tested on: calcium channels
Details: read-out: IC50 values for blocking calcium channels; cerebellar granule cells of 8 day old rats, 6, 7 and 8 days of culture; fura2/AM fluorescence, 37°C

Q: For `COc1ccc(CCN(C)CCCC(C#N)(c2ccc(OC)c(OC)c2)C(C)C)cc1OC` (stereo not shown) [Verapamil], which IC50 is on record?
A: The IC50 was 4.8 µM.
